From patent publication US5637596A, “Azabicycloalkyl derivatives of imidazo[1,5-a]indol-3-one and process for their preparation” (Pharmacia S.p.A., priority 1994, dated 1997)

Key:
serotonin 5HT3 receptors = molecular target: T1, serotonin 5HT3 receptors (Rattus norvegicus, UniProt P35563); test: Affinity for serotonin 5HT3 receptors in rat entorhinal cortex using radioligand 3H-BRL 43694; format: binding
T1 construct: assessed for instance in rat entorhinal cortex using a selective radioligand; from tissue; host or cells: rat entorhinal cortex
T1 sequence (P35563 24-483): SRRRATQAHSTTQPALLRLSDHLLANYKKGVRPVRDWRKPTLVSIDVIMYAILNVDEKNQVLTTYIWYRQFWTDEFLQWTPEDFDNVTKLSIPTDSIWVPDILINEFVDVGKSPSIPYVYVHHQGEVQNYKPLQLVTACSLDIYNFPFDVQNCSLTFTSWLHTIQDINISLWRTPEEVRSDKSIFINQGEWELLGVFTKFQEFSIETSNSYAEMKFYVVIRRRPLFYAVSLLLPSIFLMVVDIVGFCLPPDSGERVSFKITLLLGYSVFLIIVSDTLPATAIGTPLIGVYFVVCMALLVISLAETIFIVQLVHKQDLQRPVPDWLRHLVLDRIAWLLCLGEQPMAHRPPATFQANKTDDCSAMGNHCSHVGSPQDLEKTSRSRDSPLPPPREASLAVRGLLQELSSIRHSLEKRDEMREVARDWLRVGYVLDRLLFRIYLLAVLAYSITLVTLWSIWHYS
Experimental: The affinity for serotonin 5HT3 receptors was assessed for instance in rat entorhinal cortex using a selective radioligand ^3 H-BRL 43694 as described by Nelson and Thomas (1989).
Nelson D. R. and Thomas D. R., [^3 H]-BRL 43694 (Granisetron), a specific ligand for 5HT3 binding sites in rat brain cortical membranes, Biochem. Pharmac., 38, 1693-1695, 1989.
The following Table II summarized the data obtained in this in-vitro test for two representative compounds of the invention.
5-HT3 binding affinity for rat enthiorinal cortex

5HT3 receptor = molecular target: T2, 5HT3 receptor (Rattus norvegicus, UniProt P35563); test: Inhibition of the von Bezold-Jarisch chemoreflex evoked by 5-HT in the anesthetized rat (in-vivo 5HT3 antagonist activity); settings: von Bezold-Jarisch reflex elicited by 5-HT (30 μg/kg i.v.); for ED50: iv, limits printed on the next line; for % inhibition: dose 100 μg/kg i.v., N = 6, mean
T2 construct: chemoreflex evoked by 5HT in the anesthetized rat; from tissue; host or cells: anesthetized rat, whole animal (endogenous receptor)
T2 sequence (P35563 24-483): T1 sequence (P35563 24-483)
Experimental: Pharmacol. 326, 36-44 (1984).
The following Table I reports in-vivo 5HT3 antagonist activity data obtained in this test for two representative compounds of the invention.
Inhibition of the von Bezold-Jarisch reflex
elicited by 5-HT (30 μg/kg i.v.) by FCE
compounds in the anesthetized rat. Values are
mean ± in S.E.M. from N animals

Row | SMILES | IC50 (serotonin 5HT3 receptors) | ED50 (5HT3 receptor) | % inhibition (5HT3 receptor)
1 | CN1C2CCC1CC(N1Cc3cc4ccccc4n3C1=O)C2 (stereo not drawn) [FCE 28837, (endo)-2-(8-methyl-8-azabicyclo[3.2.1]oct-3-yl)-1,2-dihydro-imidazo[1,5-a]indol-3-one] | 10 nM | 0.0118 mg/kg | 88.5%
2 | Cl.O=C1N(C2CN3CCC2CC3)Cc2cc3ccccc3n21 (stereo not drawn) [FCE 28841, 2-(1-azabicyclo[2.2.2]oct-3-yl)-1,2-dihydro-imidazo[1,5-a]indol-3-one hydrochloride] | 7 nM | 0.0218 mg/kg | 90.71%
